The target in this test is T1, glucokinase (GK), residues 12-465 of the human enzyme (Homo sapiens, UniProt P35557).
T1 construct: I.D. No. 1 corresponds to residues 12-465 of glucokinase; made in house; host or cells: E. coli DH10b-Tlr
T1 sequence (P35557 with tags, fused parts or gaps isoform P35557-2): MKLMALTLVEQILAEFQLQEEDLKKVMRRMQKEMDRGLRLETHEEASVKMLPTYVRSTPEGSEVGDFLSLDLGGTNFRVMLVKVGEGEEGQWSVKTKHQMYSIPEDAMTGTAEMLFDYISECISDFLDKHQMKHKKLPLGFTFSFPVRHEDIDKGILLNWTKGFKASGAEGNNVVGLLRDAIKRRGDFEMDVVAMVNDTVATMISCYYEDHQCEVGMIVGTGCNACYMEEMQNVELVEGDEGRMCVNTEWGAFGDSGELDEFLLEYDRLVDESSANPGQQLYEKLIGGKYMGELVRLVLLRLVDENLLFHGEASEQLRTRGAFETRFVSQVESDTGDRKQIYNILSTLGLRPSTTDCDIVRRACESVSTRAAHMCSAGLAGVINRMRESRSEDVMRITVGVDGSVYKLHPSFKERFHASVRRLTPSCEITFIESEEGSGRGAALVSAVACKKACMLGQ
The experiment in a line: Enzymatic glucokinase activity assay (KinaseGlo luminescence, ATP consumption). The class given is biochemical. The conditions noted are these: 5 μM ATP, 5 mM Glucose; for pEC50: GK activation, Kact = concentration giving 50% of the maximal increase in GK activity, read-out: pKact; for Emax: calculated maximal gain in GK enzyme activity at a saturating concentration of the compound, read-out: % ACTmax. A digest of the protocol: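 C-terminally FLAG-tagged enzyme expressed in E. coli and purified. Reaction: 25 mM Hepes pH 7.2, 25 mM NaCl, 10 mM MgCl2, 0.01% Brij35, 1 mM DTT, 5 μM ATP, 5 mM glucose, 2% DMSO, 60 min at room temperature. Remaining ATP was read by luciferase luminescence; pKact and % ACTmax came from nonlinear fits of 11-point 2-fold dilutions.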

pEC50: −log10 of the molar value. Bounds are passed on as bounds.

The values below come from patent US8173645B2 (Takeda San Diego, Inc., priority 2007, dated 2012).

`CC(=O)Nc1nc(C)c(S(=O)(=O)N2CCN([C@@H](CC3CCCCC3)C(=O)Nc3nccs3)C(=O)C2)s1` [Example 197, (S)-2-(4-(2-acetamido-4-methylthiazol-5-ylsulfonyl)-2-oxopiperazin-1-yl)-3-cyclohexyl-N-(thiazol-2-yl)propanamide]: the pEC50 was no more than 5.50 and the Emax is 97.1 to 107%.
For `Cn1cc(S(=O)(=O)N2CCN([C@@H](CC3CCCCC3)C(=O)Nc3nccs3)C(=O)C2)c(C(F)(F)F)n1` [Example 198, (S)-3-cyclohexyl-2-(4-(1-methyl-3-(trifluoromethyl)-1H-pyrazol-4-ylsulfonyl)-2-oxopiperazin-1-yl)-N-(thiazol-2-yl)propanamide], in that order: 5.60 to 5.80 and 108 to 119%.
As to `Cc1ccc([N+](=O)[O-])cc1S(=O)(=O)N1CCN([C@@H](CC2CCCCC2)C(=O)Nc2nccs2)C(=O)C1` [Example 199, (S)-3-cyclohexyl-2-(4-(2-methyl-5-nitrophenylsulfonyl)-2-oxopiperazin-1-yl)-N-(thiazol-2-yl)propanamide], the pEC50 was no less than 6.20 and the Emax was 74.1 to 97%.
The matching figures for `Cc1ccc(S(=O)(=O)N2CCN([C@@H](CC3CCCCC3)C(=O)Nc3nccs3)C(=O)C2)cc1` [Example 202, (S)-3-cyclohexyl-2-(2-oxo-4-tosylpiperazin-1-yl)N-(thiazol-2-yl)propanamide]: 5.60 to 5.80 and 108 to 119%.
As to `O=C(Nc1nccs1)[C@H](CC1CCCCC1)N1CCN(S(=O)(=O)c2ccc(Br)s2)CC1=O` [Example 203, (S)-2-(4-(5-bromothiophen-2-ylsulfonyl)-2-oxopiperazin-1-yl)-3-cyclohexyl-N-(thiazol-2-yl)propanamide], the pEC50 was no less than 6.20 and the Emax was 108 to 119%.
The matching figures for `O=C(Nc1nccs1)[C@H](CC1CCCCC1)N1CCN(S(=O)(=O)c2ccc(Br)cc2)CC1=O` [Example 204, (S)-2-(4-(4-bromophenylsulfonyl)-2-oxopiperazin-1-yl)-3-cyclohexyl-N-(thiazol-2-yl)propanamide]: 5.60 to 5.80 and 74.1 to 97%.
The matching figures for `O=C(Nc1nccs1)[C@H](CC1CCCCC1)N1CCN(S(=O)(=O)c2ccccc2F)CC1=O` [Example 205, (S)-3-cyclohexyl-2-(4-(2-fluorophenylsulfonyl)-2-oxopiperazin-1-yl)-N-(thiazol-2-yl)propanamide]: no less than 6.20 and no less than 119%.
Turning to `CC(=O)c1ccc(S(=O)(=O)N2CCN([C@@H](CC3CCCCC3)C(=O)Nc3nccs3)C(=O)C2)cc1` [Example 206], the pEC50 is no more than 5.50 and the Emax was 74.1 to 97%.
For `O=C(Nc1nccs1)[C@H](CC1CCCCC1)N1CCN(S(=O)(=O)c2ccc(Oc3ccccn3)cc2)CC1=O` [Example 207, (S)-3-cyclohexyl-2-(2-oxo-4-(4-(pyridin-2-yloxy)phenylsulfonyl)piperazin-1-yl)-N-(thiazol-2-yl)propanamide], the pEC50 is no less than 6.20 and the Emax was 74.1 to 97%.
The matching figures for `O=C(Nc1nccs1)[C@H](CC1CCCCC1)N1CCN(S(=O)(=O)c2ccc(Oc3ccccc3)nc2)CC1=O` [Example 209, (S)-3-cyclohexyl-2-(2-oxo-4-(6-phenoxypyridin-3-ylsulfonyl)piperazin-1-yl)-N-(thiazol-2-yl)propanamide]: 5.60 to 5.80 and no more than 74%.
Turning to `O=C(Nc1nccs1)[C@H](CC1CCCCC1)N1CCN(S(=O)(=O)Cc2ccc(C(F)(F)F)cc2)CC1=O` [Example 210, (S)-3-cyclohexyl-2-(2-oxo-4-(4-(trifluoromethyl)benzylsulfonyl)piperazin-1-yl)-N-(thiazol-2-yl)propanamide], the pEC50 was no more than 5.50 and the Emax was no more than 74%.
Consider `O=C(Nc1nccs1)[C@H](CC1CCCCC1)N1CCN(S(=O)(=O)Cc2ccc(Cl)c(Cl)c2)CC1=O` [Example 211, (S)-3-cyclohexyl-2-(4-(3,4-dichlorobenzylsulfonyl)-2-oxopiperazin-1-yl)-N-(thiazol-2-yl)propanamide], for which the pEC50 was 5.60 to 5.80 and the Emax is no more than 74%.
